Patent US4731486A, “Hydroformylation using low volatile phosphine ligands” (Union Carbide Corporation, priority 1986, dated 1988)

Legend:
[1] = Batch hydroformylation of hexene-1 (Example 14); settings: Texanol/TPEG-990 3:1; 100° C.; 300 ppm Rh; 8.7 wt. % ligand; 75 psia 4:1 H2:CO
Protocol: (§1) Each rhodium catalytic precursor solution so prepared was then employed to hydroformylate propylene in a magnetically stirred, 100 mL capacity, stainless steel autoclave which was attached to a gas manifold for introducing gases to the desired partial pressures. The autoclave was also equipped with a pressure calibrator for determining reaction pressure to ±0.01 psia. and a platinum resistance thermometer for determining reactor solution temperatures to ±0.10° C. The reactor was heated externally by two 300 watt heating bands. The reactor solution temperature was controlled by a platinum resistance sensor connected to an external proportional temperature controller for controlling the temperature of the external band heaters.
In each non-aqueous hydroformylation reaction, about 15 milliliters (about 14 grams) of the rhodium catalytic precursor solution so prepared was charged to the autoclave reactor under nitrogen and heated to the reaction temperature employed (as given in Table 1 below). […]
The hydroformylation reaction rate in gram moles per liter per hour of C4 aldehydes produced was determined from sequential 5 psia. pressure drops in the reactor spanning the nominal operating pressure in the reactor, while the mole ratio of linear (n-butyraldehyde) to branched (2-methylpropionaldehyde) product was measured by gas chromatography and the results are given in Table 1 below. […]

[2] = Batch hydroformylation of octene-1 (Examples 14, 15, 19)
Protocol: as §1
In each non-aqueous hydroformylation reaction, about 15 milliliters (about 14 grams) of the rhodium catalytic precursor solution so prepared was charged to the autoclave reactor under nitrogen and heated to the reaction temperature employed (as given in Table 1 below). The reactor was then vented down to 5 psig. and a premixed gas mixture of 1:1:1 carbon monoxide:hydrogen:propylene was introduced into the reactor via the gas manifold (partial pressures given in Table 1) and the propylene so hydroformylated.
The hydroformylation reaction rate in gram moles per liter per hour of C4 aldehydes produced was determined from sequential 5 psia. pressure drops in the reactor spanning the nominal operating pressure in the reactor, while the mole ratio of linear (n-butyraldehyde) to branched (2-methylpropionaldehyde) product was measured by gas chromatography and the results are given in Table 1 below.
The same procedure and conditions employed in Example 1 of preparing various rhodium catalytic precursor solutions using rhodium dicarbonyl acetylacetonate, about a 3:1 (wt.:wt. ratio) mixture of Texanol® and CARBOWAX® TPEG-990 (about 25 wt. %) as the solubilizing agent, and a monosulfonated triphenylphosphine sodium salt ligand having the formula [drawing 26] and hydroformylating an olefin was repeated employing the various rhodium complex catalyst precursor solutions and using different alpha olefins as the hydroformylation feedstocks and the reaction conditions as shown in Table 14 below.
The same procedure and conditions employed in Example 1 of preparing various rhodium catalytic precursor solutions using rhodium dicarbonyl acethylacetonate, a monosulfonated triphenylphosphine sodium salt ligand having the formula [drawing 27] and various mixtures of Texanol® and varying amounts (about 15 wt. % in Run No. 1 and about 10 wt. % in Run Nos. 2 to 5) of different added solubilizing agents as given in Table 15 below, and hydroformylating octene-1 was repeated employing the various rhodium complex catalyst precursor solutions and the reaction conditions as shown in Table 15 below.
A comparison of the catalytic activity of aqueous and non-aqueous solutions of monosulfonated triphenylphosphine sodium salt ligand promoted catalysts in hydroformylating various molecular weight alphe-olefins was determined as follows.

[3] = Batch hydroformylation of dodecene-1 (Examples 13, 14, 18, 19)
[4] = Continuous single pass hydroformylation of butene-1 (Examples 3, 4, 5, 7, 12); settings: Texanol/PEG-600 10:1
Protocol: Continuous hydroformylation of butene-1 a monosulfonated triphenylphosphine metal salt ligand was conducted in the following manner.
The non-aqueous hydroformylation was conducted in a glass reactor operating in a continuous single pass butene-1 hydroformylation mode. The reactor consisted of a three-ounce pressure bottle submersed in an oil bath with a lass front for viewing. About 20-mL of a freshly prepared rhodium catalytic precursor solution was charged to the reactor with a syringe, after purging the system with nitrogen. […] After closing the reactor, the system was again purged with nitrogen and the oil bath was heated to furnish the desired hydroformylation reaction temperature. The hydroformylation reaction was conducted at a total gas pressure of about 160 psig., the partial pressures of hydrogen, carbon monoxide, and butene-1 being given in Table 3 below, the remainder being nitrogen and aldehyde product.
The flows of the feed gases (carbon monoxide, hydrogen, butene-1 and nitrogen) were controlled individually with mass flow meters and the feed gases dispersed into the precursor solution via microporous stainless steel spargers. The unreacted portion of the feed gases was stripped out with the product C5 aldehydes and the outlet gas analyzed over about 12 days of continuous operation.

[5] = Solubility of metal salt ligands in nonanal with added solubilizing agent; assay type: physicochemical; settings: 25° C.; nonanal with 1:4 CARBOWAX TPEG-900/TERGITOL NP-9
[6] = HPLC analysis of ligand concentration in hydroformylation reaction mediums; assay type: physicochemical; settings: both reactors, six days of operation
[7] = Continuous catalyst liquid recycle hydroformylation of octene-1 (Example 6)
Excerpt: In a continuous catalyst liquid recycle manner, an olefin starting material of octene-1 was hydroformylated for six days as follows.
The liquid recycle reactor system employed contained two 2.8 liter stainless steel stirred tank reactors, connected in series, each containing a vertically mounted agitator and a circular tubular sparger near the bottom of the reactor for feeding the syn gas. The sparger contained a plurality of holes of sufficient size to provide the desired gas flow into the liquid body. Reactor 1 contained a silicone oil shell as means of bringing the contents of the reactors up to reaction temperature while the reaction solution in Reactor 2 was heated by an electrical heater. Both reactors contained internal cooling coils for controlling the reaction temperature. Reactors 1 and 2 were connected via a line to transfer any unreacted gases from reactor 1 to reactor 2 and were further connected via a line so that a portion of the liquid reaction solution containing aldehyde product and catalyst from reactor 1 could be pumped into reactor 2 wherein the unreacted olefin of reactor 1 is further hydroformylated in reactor 2.
Each reactor also contained a pneumatic liquid level controller for automatic control of the liquid levels in the reactors. Reactor 1 further contained a line for introducing the liquid olefin using a metering pump, and a line for introducing syn gas through the sparger, while make up syn gas was added to reactor 2 via the same transfer line carrying the unreacted syn gas from reactor 1. Reactor 2 also contained a blow-off vent for removal of the unreacted gases. A line from the bottom of reactor 2 was connected to the top of a vaporizer so that a portion of the liquid reaction solution could be pumped from reactor 2 to the vaporizer. The vaporizer was maintained at reduced pressure with the help of a vacuum pump. Vaporized aldehyde was disengaged from the non-volatilized components of the liquid reaction solution in the gas-liquid separator part of the vaporizer. The remaining non-volatilized catalyst containing liquid reaction solution was pumped through a recycle line back into reactor 1. The recycle line also contained a pneumatic liquid level controller. The vaporized aldehyde product was passed into a water-cooled condenser, liquified and collected in a product receiver.

[8] = Texanol/Benzonitrile (8:1), 90° C., 200 ppm Rh, 10 wt. % ligand, 75 psia 4:1 H2:CO
[9] = Texanol/Carbowax PEG 150, 90° C., 200 ppm Rh, 10 wt. % ligand, 75 psia 4:1 H2:CO
[10] = Texanol/Dimethyl Sulfoxide (5.5:1), 90° C., 200 ppm Rh, 10 wt. % ligand, 75 psia 4:1 H2:CO
[11] = Texanol/Niax PPG-1025, 90° C., 200 ppm Rh, 10 wt. % ligand, 75 psia 4:1 H2:CO
[12] = Texanol/Sulfolane (8:1), 90° C., 200 ppm Rh, 10 wt. % ligand, 75 psia 4:1 H2:CO
[13] = Texanol/TPEG-990 3:1, 100° C., 300 ppm Rh, 8.7 wt. % ligand, 75 psia 4:1 H2:CO
[14] = aqueous (water as solvent), 100° C., 300 ppm Rh, 90 psia 1:1 H2:CO
[15] = non-aqueous (Texanol/Carbowax TPEG990 2.6:1), 100° C., 300 ppm Rh, 90 psia 1:1 H2:CO
[16] = 25 ppm Rh, 100 °C, Ligand/Rhodium 10, H2 20, CO 40 psia, 5.0 ml olefin
[17] = 200 ppm Rh, 100 °C, Ligand/Rhodium 100, H2 10, CO 40 psia, 5.0 ml olefin
[18] = 200 ppm Rh, 100 °C, Ligand/Rhodium 100, H2 100, CO 40 psia, 5.0 ml olefin
[19] = 200 ppm Rh, 120 °C, Ligand/Rhodium 200, H2 20, CO 40 psia, 5.0 ml olefin
[20] = 500 ppm Rh, 70 °C, Ligand/Rhodium 50, H2 20, CO 40 psia, 5.0 ml olefin
[21] = heptanal, CARBOWAX PEG-600, 100° C., 200 ppm Rh, 60 psia 2:1 H2:CO, two liquid organic layers
[22] = heptanal, TERGITOL 15-S-3/NIAX PPG-1025/Dimethyl Sulfoxide (4:1:1), 100° C., 200 ppm Rh, 60 psia 2:1 H2:CO
[23] = heptanal, TERGITOL 24-L-75N/CARBOWAX TPEG-990 (4:1), 100° C., 200 ppm Rh, 60 psia 2:1 H2:CO
[24] = heptanal, TERGITOL NP-9, 100° C., 200 ppm Rh, 60 psia 2:1 H2:CO
[25] = day 0.9, […], CO 51, H2 59, C4H8 20 psia
[26] = day 2.0, 101 °C, CO 51, H2 47, C4H8 22 psia
[27] = day 3.0, 101 °C, CO 20, H2 53, C4H8 24 psia
[28] = day 4.0, 101 °C, CO 20, H2 30, C4H8 39 psia
[29] = day 5.6, 101 °C, CO 15, H2 64, C4H8 31 psia
[30] = day 5.9 (so in the source), 101 °C, CO 15, H2 63, C4H8 31 psia
[31] = day 1, reactors 80.1/85.8, CO 17.0/9.9 psia
[32] = day 2, reactors 80.0/85.6, CO 7.8/2.2 psia
[33] = day 3, reactors 80.1/85.7, CO 8.1/6.5 psia
[34] = day 6, reactors 80.0/85.0, CO 10.1/8.3 psia

O=S(=O)([O-])c1cccc(P(c2ccccc2)c2ccccc2)c1.[Na+]
Linear/Branched Aldehyde Mole Ratio [1]: 13.4
Reaction Rate [1]: 5.21 G moles/L/hr
Linear/Branched Aldehyde Mole Ratio [2, 8]: 26.6
Reaction Rate (C9 aldehydes) [2, 8]: 0.47 G moles/L/hr
Linear/Branched Aldehyde Mole Ratio [2, 9]: 17.6
Reaction Rate (C9 aldehydes) [2, 9]: 1.12 G moles/L/hr
Linear/Branched Aldehyde Mole Ratio [2, 10]: 18.7
Reaction Rate (C9 aldehydes) [2, 10]: 0.95 G moles/L/hr
Linear/Branched Aldehyde Mole Ratio [2, 11]: 23.9
Reaction Rate (C9 aldehydes) [2, 11]: 0.71 G moles/L/hr
Linear/Branched Aldehyde Mole Ratio [2, 12]: 19.1
Reaction Rate (C9 aldehydes) [2, 12]: 0.98 G moles/L/hr
Linear/Branched Aldehyde Mole Ratio [2, 13]: 14.8
Reaction Rate [2, 13]: 4.17 G moles/L/hr
Linear/Branched Aldehyde Mole Ratio [2, 14]: 40.9
Reaction Rate [2, 14]: 0.11 G Moles/L/Hr
Linear/Branched Aldehyde Mole Ratio [2, 15]: 5.8
Reaction Rate [2, 15]: 2.84 G Moles/L/Hr
Linear/Branched Aldehyde Mole Ratio [3, 16]: 3.4
Reaction Rate (C13 aldehydes) [3, 16]: 1.37 Gram/Moles L/Hr
Linear/Branched Aldehyde Mole Ratio [3, 17]: 16.9
Reaction Rate (C13 aldehydes) [3, 17]: 1.13 Gram/Moles L/Hr
Linear/Branched Aldehyde Mole Ratio [3, 18]: 4.1
Reaction Rate (C13 aldehydes) [3, 18]: 1.41 Gram/Moles L/Hr
Linear/Branched Aldehyde Mole Ratio [3, 19]: 9.56
Reaction Rate (C13 aldehydes) [3, 19]: 1.24 Gram/Moles L/Hr
Linear/Branched Aldehyde Mole Ratio [3, 20]: 5.5
Reaction Rate (C13 aldehydes) [3, 20]: 0.51 Gram/Moles L/Hr
Linear/Branched Aldehyde Mole Ratio [3, 13]: 10.8
Reaction Rate [3, 13]: 1.04 G moles/L/hr
Linear/Branched Aldehyde Mole Ratio [3, 14]: 43.4
Reaction Rate [3, 14]: 0.03 G Moles/L/Hr
Linear/Branched Aldehyde Mole Ratio [3, 21]: 12.0
Reaction Rate [3, 21]: 0.72 G moles/L/hr
Linear/Branched Aldehyde Mole Ratio [3, 22]: 13.2
Reaction Rate [3, 22]: 0.51 G moles/L/hr
Linear/Branched Aldehyde Mole Ratio [3, 23]: 13.6
Reaction Rate [3, 23]: 0.62 G moles/L/hr
Linear/Branched Aldehyde Mole Ratio [3, 24]: 14.2
Reaction Rate [3, 24]: 0.77 G moles/L/hr
Linear/Branched Aldehyde Mole Ratio [3, 15]: 6.6
Reaction Rate [3, 15]: 4.49 G Moles/L/Hr
Linear/Branched Aldehyde Mole Ratio [4, 25]: 7.68
Rate (C5 aldehydes), daily average [4, 25]: 1.68 gmoles/L/Hr
Linear/Branched Aldehyde Mole Ratio [4, 26]: 9.21
Rate (C5 aldehydes), daily average [4, 26]: 1.81 gmoles/L/Hr
Linear/Branched Aldehyde Mole Ratio [4, 27]: 21.08
Rate (C5 aldehydes), daily average [4, 27]: 1.60 gmoles/L/Hr
Linear/Branched Aldehyde Mole Ratio [4, 28]: 19.83
Rate (C5 aldehydes), daily average [4, 28]: 2.50 gmoles/L/Hr
Linear/Branched Aldehyde Mole Ratio [4, 29]: 23.74
Rate (C5 aldehydes), daily average [4, 29]: 2.05 gmoles/L/Hr
Linear/Branched Aldehyde Mole Ratio [4, 30]: 22.82
Rate (C5 aldehydes), daily average [4, 30]: 2.06 gmoles/L/Hr
Metal Salt Solubility [5]: 25 Wt. %
change in ligand concentration of reaction mediums [6]: no significant change
C9 Aldehydes (rate) [7, 31]: 1.02 gmoles/L/hr
Linear/Branched Aldehyde Ratio [7, 31]: 14.0
C9 Aldehydes (rate) [7, 32]: 0.84 gmoles/L/hr
Linear/Branched Aldehyde Ratio [7, 32]: 27.2
C9 Aldehydes (rate) [7, 33]: 0.81 gmoles/L/hr
Linear/Branched Aldehyde Ratio [7, 33]: 24.7
C9 Aldehydes (rate) [7, 34]: 1.02 gmoles/L/hr
Linear/Branched Aldehyde Ratio [7, 34]: 22.5
